According to patent US20080241274A1 (ZIOPHARM Oncology, Inc., priority 2006, published 2008):
Where two headings read alike, the source gives them in different places. Each block holds one compound with its values, some of them ahead of it.

Columns and labels:
SKOV3 (ovarian) = assay: Monolayer assay (DNA content by propidium iodide), single agents and indibulin combinations, SKOV3; type: cell-based, human; settings: for Single Agent IC50: SKOV3, single agent (combination study); for Combination IC50 / CI (e), coefficient of interaction under optimal experimental concentrations: SKOV3; for CI (e), coefficient of interaction under optimal experimental concentrations: named drug in combination with indibulin, mean of quadruplicate; for IC50: Homo sapiens
Protocol: (§1) The monolayer assay determines the in vitro antitumor activity of test compounds and their capacity to inhibit survival and proliferation of established tumor cell lines. These effects can be determined by establishing the number of viable cells based on measuring the DNA content using propidium iodide. […] Between 5,000 and 10,000 cells were seeded in 96 well plates on Day 0 and the compounds were added 1 day later and incubated for 4 days. The activity was assessed by their IC50 and IC70 values.
(§2) Growth IC50 and IC70 values (Table 2) were determined using XLfit software package, and used to set the concentration ranges and drug ratios for the synergy detection part of the study.
(§3) Chou-Talalay median effect method was used to quantitatively characterize drug-drug interaction [Chou T. C. Theoretical basis, experimental design, and computerized simulation of synergism and antagonism in drug combination studies. Pharmacol Rev. 2006 September; 58(3):621-81]. […] Mixtures of the drugs at multiples of their single agent IC50's were prepared, as well as serial dilutions of the mixture. Additionally, single agent dose response was determined for the same concentration ranges as used for combination study.
(§4) The coefficient of interaction (CI(IC50)) at IC50 and coefficient of interaction under optimal experimental concentrations (CI(e)) were determined using CalcuSyn software package (Table 3, tests were performed in quadruplicate, mean values reported). Commonly, experimental values of CI<0.8 are considered synergistic, 0.8<CI<1.2 additive.

[1] = system: MCF-7 ER-positive breast cancer; assay: Monolayer assay (DNA content by propidium iodide), single agents and indibulin combinations, MCF-7; type: cell-based, human; settings: for IC50: Homo sapiens; for CI (e), coefficient of interaction under optimal experimental concentrations: named drug in combination with indibulin, mean of quadruplicate
Protocol: as §1, §2, §3, §4

[2] = system: biotin-labeled calf brain tubulin; assay: Competition with 3H-indibulin for tubulin binding (SPA beads); set-up: species or system bovine; settings: 200-fold molar excess of cold competitor; FIG. 7
Protocol: (§5) Where indicated, a 200-fold molar excess of cold competitor was added. Tubulin heterodimers were then precipitated with streptavidin-coated SPA beads and bound radioactivity was determined. “No tubulin” indicates non-specifically bound radioactivity measured in the absence of biotin-labeled tubulin.

[3] = system: biotin-labeled calf brain tubulin; assay: Competition with 3H-colchicine for tubulin binding (SPA beads); set-up: species or system bovine; settings: 200-fold molar excess of cold competitor; FIG. 8
Protocol: as §5

A549 NSCLC = assay: Monolayer assay (DNA content by propidium iodide), single agents and indibulin combinations, A549; type: cell-based, human; settings: for CI (e), coefficient of interaction under optimal experimental concentrations: named drug in combination with indibulin, mean of quadruplicate; for IC50: Homo sapiens
Protocol: as §1, §2, §3, §4

PC3 (prostate) = assay: Monolayer assay (DNA content by propidium iodide), single agents and indibulin combinations, PC3; type: cell-based, human; settings: for IC50: Homo sapiens, read-out: Single Agent IC50; for Combination IC50 / CI (e), coefficient of interaction under optimal experimental concentrations: PC3; for Combination IC50: concentration of the named drug in the combination; for CI (e), coefficient of interaction under optimal experimental concentrations: named drug in combination with indibulin, mean of quadruplicate
Protocol: as §1, §2, §3, §4

[4] = system: adult bovine brain tubulin; assay: Tubulin polymerization, adult bovine brain tubulin; type: biochemical; settings: calf and adult bovine brain tubulin compared
Source text: Tubulin from neuronal tissue is post-translationally modified and the degree of modification increases during neuronal development. Calf brain neuronal tubulin and tubulin from other tissues differ in their post-translational modifications from that of adult bovine brain. […] Tubulin polymerization is given as % over DMSO control.

[5] = system: axonal microtubules of rat pheochromocytoma (PC12) cells; assay: Axonal microtubule immunostaining in NGF-differentiated PC12 cells; type: cell-based; settings: PC12 neurites induced by NGF 5-6 days; 24 h treatment at 2×IC50 concentration
Source text: The outgrowth of neurites of PCl2 was induced by NGF for 5-6 days. […] Microtubules within the neurites, were visualized by immunostaining with an antibody recognizing acetylated (axonal) tubulin, leaving the cell bodies unstained.

[6] = MCF7, MCF7, single agent (combination study), read-out: Single Agent IC50
[7] = MCF7, 96 h, MCF7, single agent, 4 days incubation, read-out: Growth IC50
[8] = MCF7, single agent (combination study)
[9] = MCF7, indibulin + paclitaxel (paclitaxel:indibulin 0.27:1), concentration of the named drug in the combination
[10] = A549, single agent (combination study)
[11] = A549, 96 h, A549, single agent, 4 days incubation, read-out: Growth IC50
[12] = A549, indibulin + carboplatin (carboplatin:indibulin 303:1), concentration of the named drug in the combination
[13] = MCF7, indibulin + vinorelbine (vinorelbine:indibulin 0.016:1), concentration of the named drug in the combination
[14] = MCF7, indibulin + 5-FU (5FU:indibulin 10.9:1), concentration of the named drug in the combination

IC50 [1, 6]: 7 ng/mL | Combination IC50 ([1]; MCF7, indibulin + doxorubicin, concentration of the named drug in the combination): 3 ng/mL
SMILES: COc1cccc2c1C(=O)c1c(O)c3c(c(O)c1C2=O)C[C@@](O)(C(=O)CO)C[C@@H]3O[C@H]1C[C@H](N)[C@H](O)[C@H](C)O1 [Doxorubicin]
CI (e), coefficient of interaction under optimal experimental concentrations ([1]; MCF7): 0.64

Competition with 3H-indibulin for tubulin binding [2]: do not compete | Inhibition of 3H-colchicine binding (in words) [3]: no effect
SMILES: CC[C@]1(O)C[C@@H]2CN(CCc3c([nH]c4ccccc34)[C@@](C(=O)OC)(c3cc4c(cc3OC)N(C)[C@H]3[C@@](O)(C(=O)OC)[C@H](OC(C)=O)[C@]5(CC)C=CCN6CC[C@]43[C@@H]65)C2)C1 [Vinblastine]
CI (e), coefficient of interaction under optimal experimental concentrations ([1]; MCF7): 0.50

IC50 [1, 7]: 0.3 ng/mL | IC50 [1, 6]: 1.27 ng/mL | Combination IC50 [1, 9]: 1.08 ng/mL | Competition with 3H-indibulin for tubulin binding [2]: do not compete | Inhibition of 3H-colchicine binding (in words) [3]: no effect
SMILES: CC(=O)O[C@H]1C(=O)[C@@]2(C)[C@H]([C@H](OC(=O)c3ccccc3)[C@]3(O)C[C@H](OC(=O)[C@H](O)[C@@H](NC(=O)c4ccccc4)c4ccccc4)C(C)=C1C3(C)C)[C@]1(OC(C)=O)CO[C@@H]1C[C@@H]2O [Paclitaxel]
Single Agent IC84 [1, 8]: 5.3 ng/mL | Combination IC84 [1, 9]: 2.7 ng/mL | CI (e), coefficient of interaction under optimal experimental concentrations ([1]; MCF7): 0.42

IC50 (A549 NSCLC; [11]): 52 ng/mL
SMILES: COc1cc([C@@H]2c3cc4c(cc3[C@@H](O[C@@H]3O[C@@H]5CO[C@@H](C)O[C@H]5[C@H](O)[C@H]3O)[C@H]3COC(=O)[C@H]23)OCO4)cc(OC)c1O [Etoposide]
Single Agent IC60 (A549 NSCLC; [10]): 177 ng/mL | Combination IC60 (A549 NSCLC; A549, indibulin + etoposide, concentration of the named drug in the combination): 94 ng/mL | CI (e), coefficient of interaction under optimal experimental concentrations (A549 NSCLC; A549): 1.05

IC50 (A549 NSCLC; [11]): 7860 ng/mL | IC50 (A549 NSCLC; A549, A549, single agent (combination study), read-out: Single Agent IC50): 38500 ng/mL | IC50 (A549 NSCLC; A549, A549, indibulin + erlotinib (erlotinib:indibulin 208:1), concentration of the named drug in the combination, read-out: Combination IC50): 6200 ng/mL
SMILES: C#Cc1cccc(Nc2ncnc3cc(OCCOC)c(OCCOC)cc23)c1 [Erlotinib]
Single Agent IC40 (A549 NSCLC; [10]): 20315 ng/mL | Combination IC40 (A549 NSCLC; A549, indibulin + erlotinib (erlotinib:indibulin 208:1), concentration of the named drug in the combination): 4424 ng/mL | CI (e), coefficient of interaction under optimal experimental concentrations (A549 NSCLC; A549): 0.32

IC50 (PC3 (prostate); PC3, single agent (combination study)): 137000 ng/mL | Combination IC50 (PC3 (prostate); indibulin + prednisolone): 145,659 ng/mL
SMILES: C[C@]12C=CC(=O)C=C1CC[C@@H]1[C@@H]2[C@@H](O)C[C@@]2(C)[C@H]1CC[C@]2(O)C(=O)CO [Prednisolone]
CI (e), coefficient of interaction under optimal experimental concentrations (PC3 (prostate)): 0.91

IC50 [1, 7]: 0.18 ng/mL | IC50 [1, 6]: 0.19 ng/mL | Combination IC50 [1, 13]: 0.08 ng/mL
SMILES: CCC1=C[C@@H]2CN(C1)Cc1c([nH]c3ccccc13)[C@@](C(=O)OC)(c1cc3c(cc1OC)N(C)[C@H]1[C@@](O)(C(=O)OC)[C@H](OC(C)=O)[C@]4(CC)C=CCN5CC[C@]31[C@@H]54)C2 [Vinorelbine]
Single Agent IC60 [1, 8]: 0.26 ng/mL | Combination IC60 [1, 13]: 0.10 ng/mL

IC50 (A549 NSCLC; [11]): 1.7 ng/mL | IC50 (SKOV3 (ovarian); SK-OV-3, SKOV3, single agent (combination study), read-out: Single Agent IC50): 11 ng/mL | IC50 (SKOV3 (ovarian); SK-OV-3, SKOV3, indibulin + gemcitabine, concentration of the named drug in the combination, read-out: Combination IC50): 12 ng/mL
SMILES: Nc1ccn([C@@H]2O[C@H](CO)[C@@H](O)C2(F)F)c(=O)n1 [Gemcitabine]
CI (e), coefficient of interaction under optimal experimental concentrations (A549 NSCLC; A549): 0.93 | CI (e), coefficient of interaction under optimal experimental concentrations (SKOV3 (ovarian)): 0.65

Continued, compound first:

SMILES: N.N.[Cl][Pt][Cl] [Cisplatin]
Single Agent IC50 (SKOV3 (ovarian)): 773 ng/mL | Combination IC50 (SKOV3 (ovarian); indibulin + cisplatin, concentration of the named drug in the combination): 780 ng/mL | CI (e), coefficient of interaction under optimal experimental concentrations (SKOV3 (ovarian)): 0.77

SMILES: COC(=O)Nc1nc2ccc(C(=O)c3cccs3)cc2[nH]1 [nocodazole]
Competition with 3H-indibulin for tubulin binding [2]: compete | Inhibition of 3H-colchicine binding (in words) [3]: completely inhibit binding

SMILES: CC/C(=C(\c1ccccc1)c1ccc(OCCN(C)C)cc1)c1ccccc1 [Tamoxifen]
Single Agent IC60 [1, 8]: 3166 ng/mL | Combination IC60 ([1]; MCF7, indibulin + tamoxifen (tamoxifen:indibulin 100:1), concentration of the named drug in the combination): 641 ng/mL | CI (e), coefficient of interaction under optimal experimental concentrations ([1]; MCF7): 0.67

SMILES: C[C@]12CC[C@@H]3c4ccc(OC(=O)N(CCCl)CCCl)cc4CC[C@H]3[C@@H]1CC[C@@H]2O [Estramustine]
IC50 (PC3 (prostate)): 29700 ng/mL | Combination IC50 (PC3 (prostate); indibulin + estramustine): 26,466 ng/mL | CI (e), coefficient of interaction under optimal experimental concentrations (PC3 (prostate)): 0.76

SMILES: CC[C@]1(O)C[C@H]2CN(CCc3c([nH]c4ccccc34)[C@@](C(=O)OC)(c3cc4c(cc3OC)N(C=O)[C@H]3[C@@](O)(C(=O)OC)[C@H](OC(C)=O)[C@]5(CC)C=CCN6CC[C@]43[C@@H]65)C2)C1 [vincristine]
Inhibition of calf versus bovine brain tubulin polymerization (in words) [4]: inhibited both, calf and bovine brain tubulin polymerization to a similar extent

SMILES: N.N.O=C([O-])C1(C(=O)[O-])CCC1.[Pt+2] [Carboplatin]
Single Agent IC50 (A549 NSCLC; [10]): 5,827 ng/mL | Single Agent IC70 (A549 NSCLC; [10]): 15365 ng/mL | Combination IC50 (A549 NSCLC; [12]): 3481 ng/mL | Combination IC70 (A549 NSCLC; [12]): 8044 ng/mL | CI (e), coefficient of interaction under optimal experimental concentrations (A549 NSCLC; A549): 0.72 | Single Agent IC50 (SKOV3 (ovarian)): 12,026 ng/mL | Combination IC50 (SKOV3 (ovarian); indibulin + carboplatin, concentration of the named drug in the combination): 12,881 ng/mL | CI (e), coefficient of interaction under optimal experimental concentrations (SKOV3 (ovarian)): 0.73

SMILES: COc1cc([C@@H]2c3cc4c(cc3[C@H](O)[C@H]3COC(=O)[C@H]23)OCO4)cc(OC)c1OC [podophyllotoxin]
Competition with 3H-indibulin for tubulin binding [2]: compete | Inhibition of 3H-colchicine binding (in words) [3]: completely inhibit binding

SMILES: COc1cc2c(c(OC)c1OC)-c1ccc(OC)c(=O)cc1[C@@H](NC(C)=O)CC2 [colchicine]
Effect on axonal microtubules (acetylated tubulin immunostaining) [5]: microtubules were partially disrupted

SMILES: O=c1[nH]cc(F)c(=O)[nH]1 [5-FU, 5-Fluorouracil]
IC50 [1, 6]: 92 ng/mL | Single Agent IC60 [1, 8]: 84 ng/mL | Combination IC50 [1, 14]: 57 ng/mL | Combination IC60 [1, 14]: 30 ng/mL | CI (e), coefficient of interaction under optimal experimental concentrations ([1]; MCF7): 0.46
